{"source": "patent US20070122366A1", "about": "(priority 2005, published 2007)", "origin": "cited, not measured here", "key": {"[1]": {"details": "oral administration"}}, "data": [{"smiles": "CN(C/C=C/C#CC(C)(C)C)Cc1cccc2ccccc12", "note": "[Terbinafine]", "values": [{"measurement": "average mycological cure", "setting": "onychomycosis; 18 randomized controlled trials, onychomycosis", "value": 76, "unit": "%"}, {"measurement": "activity in comparative studies", "setting": "onychomycosis; treatment of toenail onychomycosis", "value": "greater than itraconazole and fluconazole"}, {"measurement": "persistence of concentration in nails", "setting": "[1]; after the treatment has finished", "value": "at least 30 weeks"}, {"measurement": "time at which concentration in nails is detected", "setting": "[1]; after therapy started", "value": "within the first week"}]}]}
